# Molecular target: recombinant human PrP (rhPrP, PrP^C) (Homo sapiens, UniProt P04156)
# Experiment: biochemical
# Format: binding
smiles,measurement,value
Cc1cc(Nc2ccc(NC(=O)c3ccc(Nc4ccnc5ccccc45)cc3)cc2)nc(N)n1 [SGI-1027],Kd,1610 nM
